Source: patent US10508109B2 (priority 2015, dated 2019)
Where two headings read alike, the source gives them in different places.

Legend:
A549 = experiment: Cell-based assay, anti-proliferative activity (Cell Counting Kit-8, 72 hours); settings: Homo sapiens, read-out: IC50 (μM) A549
How it was run: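 Seed cells in 96-well format; add inhibitors; measure growth by CCK-8 at end of exposure; derive IC50.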

SUV39H2 = SUV39H2 (Homo sapiens (Human), UniProt Q9H5I1); settings: read-out: IC50 (μM) Suv 39H2 assay; enzyme assay
PC14 = experiment: Cell-based assay, anti-proliferative activity (Cell Counting Kit-8, 72 hours); settings: Homo sapiens, read-out: IC50 (μM) PC14
How it was run: (§1)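 CCK-8 growth read-out at 72 h post compound exposure; 96-well seeding. IC50 from 8-point dilution (0–100 micro-M, twofold steps from 1.5625 micro-M).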

CCD-18Co = experiment: as above; settings: Homo sapiens, read-out: IC50 (μM) CCD-18Co
How it was run: as §1

HCT-116 = experiment: as above; settings: Homo sapiens, read-out: IC50 (μM) HCT-116
How it was run: as §1

HFL1 = experiment: as above; settings: Homo sapiens, read-out: IC50 (μM) HFL1
How it was run: as §1

[1] = A549 cells, Cell Counting Kit-8, 72 hours
[2] = PC-14, PC14 cells, Cell Counting Kit-8, 72 hours
[3] = CCD-18Co cells, Cell Counting Kit-8, 72 hours
[4] = HCT-116 cells, Cell Counting Kit-8, 72 hours
[5] = HFL1 cells, Cell Counting Kit-8, 72 hours
[6] = A549 cells, 72 hours, Cell Counting Kit-8
[7] = PC-14, PC14 cells, 72 hours, Cell Counting Kit-8
[8] = CCD-18Co cells, 72 hours, Cell Counting Kit-8
[9] = HCT-116 cells, 72 hours, Cell Counting Kit-8
[10] = HFL1 cells, 72 hours, Cell Counting Kit-8

SUV39H2, sequence (Q9H5I1 whole entry): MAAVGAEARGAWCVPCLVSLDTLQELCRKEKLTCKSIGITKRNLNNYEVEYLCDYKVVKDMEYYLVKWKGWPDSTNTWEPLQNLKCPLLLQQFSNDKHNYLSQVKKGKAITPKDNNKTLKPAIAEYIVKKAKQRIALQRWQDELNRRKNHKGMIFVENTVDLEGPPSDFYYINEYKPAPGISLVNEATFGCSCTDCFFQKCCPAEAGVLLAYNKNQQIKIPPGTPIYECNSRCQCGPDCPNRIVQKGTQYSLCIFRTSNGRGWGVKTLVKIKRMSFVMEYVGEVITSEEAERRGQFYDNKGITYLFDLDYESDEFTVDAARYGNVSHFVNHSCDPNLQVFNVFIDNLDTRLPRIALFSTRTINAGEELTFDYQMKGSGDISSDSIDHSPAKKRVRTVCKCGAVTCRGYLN

Question: Which results are given for COc1cc(OC)c(-c2cn3cc(NCCN)c(C)cc3n2)cc1Cl [Example 78, N^1-(2-(5-chloro-2,4-dimethoxyphenyl)-7-methylimidazo[1,2-a]pyridin-6-yl)ethane-1,2-diamine]?
Answer: IC50 (A549; A549, 72 h): 6.3 µM; IC50 (SUV39H2): 0.00431 µM; IC50 (PC14; PC-14, 72 h): 6.1 µM; IC50 (CCD-18Co; CCD-18Co, 72 h): 5.7 µM; IC50 (HCT-116; HCT-116, 72 h): 5.6 µM; IC50 (HFL1; HFL1, 72 h): 2.7 µM

Question: Which results are given for COc1cc(OC)c(-c2cn3ccc(N4CCN(CCC(=O)NCCN(C)C)CC4)cc3n2)cc1Cl [Example 158, 3-(4-(2-(5-chloro-2,4-dimethoxyphenyl)imidazo[1,2-a]pyridin-7-yl)piperazin-1-yl)-N-(2-(dimethylamino)ethyl)propanamide]?
Answer: IC50 (A549; [1]): 9.3 µM; IC50 (SUV39H2): 0.00353 µM; IC50 (PC14; [2]): 9.8 µM; IC50 (CCD-18Co; [3]): 14 µM; IC50 (HCT-116; [4]): 9.4 µM; IC50 (HFL1; [5]): 7.7 µM

Question: What does the source list for COc1cc(OC)c(-c2cn3ccc(N4CCN(P(=O)(OC)OC)CC4)nc3n2)cc1Cl [Example 218, dimethyl (4-(2-(5-chloro-2,4-dimethoxyphenyl)imidazo[1,2-a]pyrimidin-7-yl)piperazin-1-yl)phosphonate]?
Answer: IC50 (A549; A549, 72 h): 6.5 µM; IC50 (SUV39H2): 0.0111 µM; IC50 (PC14; PC-14, 72 h): 3.4 µM; IC50 (CCD-18Co; CCD-18Co, 72 h): 10 µM; IC50 (HCT-116; HCT-116, 72 h): 5.6 µM; IC50 (HFL1; HFL1, 72 h): 10 µM

Question: For COC(=O)N[C@H]1CC[C@H](Nc2ccn3cc(-c4cc(Cl)c(OC)cc4OC)nc3c2)CC1 [Example 277, (methyl-4-((2-(5-chloro-2,4-dimethoxyphenyl)imidazo[1,2-a]pyridin-7-yl)amino)-trans-cyclohexyl)carbamate], which IC50 (A549; [6]) is on record?
Answer: 0.98 µM

Question: What about the IC50 (SUV39H2) of the same molecule?
Answer: 0.00524 µM

Question: What about the IC50 (PC14; [7]) of the same molecule?
Answer: 0.93 µM

Question: And the IC50 (CCD-18Co; [8])?
Answer: 0.78 µM

Question: And the IC50 (HCT-116; [9])?
Answer: 0.8 µM

Question: What about the IC50 (HFL1; [10]) of the same molecule?
Answer: 0.7 µM

Question: With COc1cc(OC)c(-c2cn3ccc(N4CCN(CC#N)CC4)cc3n2)cc1Cl [Example 95, 2-(4-(2-(5-chloro-2,4-dimethoxyphenyl)imidazo[1,2-a]pyridin-7-yl)piperazin-1-yl)acetonitrile] as the molecule, how does the IC50 (A549; [1]) read?
Answer: 2.9 µM

Question: What about the IC50 (SUV39H2) of the same molecule?
Answer: 0.00807 µM

Question: What about the IC50 (PC14; [2]) of the same molecule?
Answer: 3 µM

Question: And the IC50 (CCD-18Co; [3])?
Answer: 5.3 µM

Question: What about the IC50 (HCT-116; [4]) of the same molecule?
Answer: 3.4 µM

Question: And the IC50 (HFL1; [5])?
Answer: 4.1 µM

Question: Which IC50 (A549; [6]) does the source give for COc1cc(OC)c(-c2cn3ccc(N4CCN(C5CCCC5)CC4)cc3n2)cc1Cl [Example 239, 2-(5-chloro-2,4-dimethoxyphenyl)-7-(4-cyclopentylpiperazin-1-yl)imidazo[1,2-a]pyridine] here?
Answer: 1.5 µM

Question: And the IC50 (SUV39H2)?
Answer: 0.021 µM

Question: What about the IC50 (PC14; [7]) of the same molecule?
Answer: 1.8 µM

Question: What about the IC50 (CCD-18Co; [8]) of the same molecule?
Answer: 2.1 µM

Question: What about the IC50 (HCT-116; [9]) of the same molecule?
Answer: 1.5 µM

Question: And the IC50 (HFL1; [10])?
Answer: 1.7 µM

Question: How did the IC50 (A549; [1]) turn out when COc1cc(OCCCN(C)C)c(-c2cn3ccc(N4CCCC4)cc3n2)cc1Cl [Example 80, 3-{4-chloro-5-methoxy-2-[7-(pyrrolidin-1-yl)imidazo[1,2-a]pyridin-2-yl]-phenoxy}-N,N-dimethylpropan-1-amine] was run?
Answer: 1.6 µM

Question: And the IC50 (SUV39H2)?
Answer: 0.00531 µM

Question: And the IC50 (PC14; [2])?
Answer: 1.7 µM

Question: And the IC50 (CCD-18Co; [3])?
Answer: 1.8 µM

Question: And the IC50 (HCT-116; [4])?
Answer: 1.1 µM

Question: And the IC50 (HFL1; [5])?
Answer: 0.85 µM

Question: What does the source list for CC[C@@H](C)[C@H](N)C(=O)Nc1ccn2cc(-c3cc(Cl)c(OC)cc3OC)nc2c1 [Example 258, (2S,3R)-2-amino-N-(2-(5-chloro-2,4-dimethoxyphenyl)imidazo[1,2-a]-pyridin-7-yl)-3-methylpentanamide]?
Answer: IC50 (A549; [6]): 5.8 µM; IC50 (SUV39H2): 0.0639 µM; IC50 (PC14; [7]): 5.7 µM; IC50 (CCD-18Co; [8]): 4.6 µM; IC50 (HCT-116; [9]): 7.6 µM; IC50 (HFL1; [10]): 6.8 µM

Question: Which results are given for COc1cc(OC)c(-c2cn3ccc(NC(=O)[C@@H](N)Cc4c[nH]c5ccccc45)cc3n2)cc1Cl [Example 250, (S)-2-amino-N-(2-(5-chloro-2,4-dimethoxyphenyl)imidazo[1,2-a]pyridin-7-yl)-3-(1H-indol-3-yl)propanamide]?
Answer: IC50 (A549; A549, 72 h): 6.6 µM; IC50 (SUV39H2): 0.0427 µM; IC50 (PC14; PC-14, 72 h): 4.2 µM; IC50 (CCD-18Co; CCD-18Co, 72 h): 4 µM; IC50 (HCT-116; HCT-116, 72 h): 6.9 µM; IC50 (HFL1; HFL1, 72 h): 3.6 µM

Question: How did the IC50 (A549; [1]) turn out when COc1cc(OC)c(-c2cn3ccc(N4CCN(S(=O)(=O)Cc5ccccc5)CC4)cc3n2)cc1Cl [Example 179, 7-[4-(benzylsulfonyl)piperazin-1-yl]-2-(5-chloro-2,4-dimethoxyphenyl)-imidazo[1,2-a]pyridine] was run?
Answer: 2.1 µM

Question: What about the IC50 (SUV39H2) of the same molecule?
Answer: 0.0322 µM

Question: What about the IC50 (PC14; [2]) of the same molecule?
Answer: 1.6 µM

Question: And the IC50 (CCD-18Co; [3])?
Answer: 1.8 µM

Question: What about the IC50 (HCT-116; [4]) of the same molecule?
Answer: 1.6 µM

Question: And the IC50 (HFL1; [5])?
Answer: 1.8 µM

Question: For COC(=O)CCCN1CCN(c2ccn3cc(-c4cc(Cl)c(OC)cc4OC)nc3c2)CC1 [Example 237, methyl 4-(4-(2-(5-chloro-2,4-dimethoxyphenyl)imidazo[1,2-a]pyridine-7-yl)piperazin-1-yl)butanoate], which IC50 (A549; [6]) is on record?
Answer: 10 µM

Question: And the IC50 (SUV39H2)?
Answer: 0.0113 µM

Question: And the IC50 (PC14; [7])?
Answer: 10 µM

Question: And the IC50 (CCD-18Co; [8])?
Answer: 10 µM

Question: What about the IC50 (HCT-116; [9]) of the same molecule?
Answer: 10 µM

Question: What about the IC50 (HFL1; [10]) of the same molecule?
Answer: 10 µM

Question: Which results are given for COc1cc(OC)c(-c2cn3ccc(-c4ccc(C(=O)N5CCC(N)CC5)cc4)cc3n2)cc1Cl [Example 259, (4-aminopiperidin-1-yl)(4-(2-(5-chloro-2,4-dimethoxyphenyl)imidazo[1,2-a]pyridin-7-yl)phenyl)methanone]?
Answer: IC50 (A549; [6]): 10 µM; IC50 (SUV39H2): 0.0586 µM; IC50 (PC14; [7]): 7.9 µM; IC50 (CCD-18Co; [8]): 10 µM; IC50 (HCT-116; [9]): 7.3 µM; IC50 (HFL1; [10]): 8.6 µM

Question: What does the source list for COc1cc(OC)c(-c2cn3ccc(N4CCN(CCCC(=O)O)CC4)cc3n2)cc1Cl [Example 240, 4-(4-(2-(5-chloro-2,4-dimethoxyphenyl)imidazo[1,2-a]pyridine-7-yl)piperazin-1-yl)butanoic acid]?
Answer: IC50 (A549; [6]): 10 µM; IC50 (SUV39H2): 0.0063 µM; IC50 (PC14; [7]): 10 µM; IC50 (CCD-18Co; [8]): 10 µM; IC50 (HCT-116; [9]): 10 µM; IC50 (HFL1; [10]): 10 µM

Question: For COc1cc(OCCCN(C)C)c(-c2cn3ccc(N4CCC(N)CC4)cc3n2)cc1Cl [Example 150, 1-(2-{5-chloro-2-[3-(dimethylamino)propoxy]-4-methoxyphenyl}-imidazo[1,2-a]pyridin-7-yl)piperidin-4-amine], which IC50 (A549; [1]) is on record?
Answer: 2.3 µM

Question: And the IC50 (SUV39H2)?
Answer: 0.035 µM

Question: What about the IC50 (PC14; [2]) of the same molecule?
Answer: 2.2 µM

Question: And the IC50 (CCD-18Co; [3])?
Answer: 2.4 µM

Question: What about the IC50 (HCT-116; [4]) of the same molecule?
Answer: 2.1 µM

Question: What about the IC50 (HFL1; [5]) of the same molecule?
Answer: 0.86 µM

Question: What does the source list for COc1cc(OCCCN(C)C)c(-c2cn3ccc(N4CCC(NS(C)(=O)=O)CC4)cc3n2)cc1Cl [Example 164, N-(1-(2-(5-chloro-2-(3-(dimethylamino)propoxy)-4-methoxyphenyl)-imidazo[1,2-a]pyridin-7-yl)piperidin-4-yl)methanesulfonamide]?
Answer: IC50 (A549; [1]): 10 µM; IC50 (SUV39H2): 0.0211 µM; IC50 (PC14; [2]): 8.8 µM; IC50 (CCD-18Co; [3]): 7.2 µM; IC50 (HCT-116; [4]): 9 µM; IC50 (HFL1; [5]): 8.6 µM

Question: For COc1cc(OC)c(-c2cn3ccc(N4CCN(P(=O)(OC)OC)CC4)cc3n2)cc1Cl [Example 203, dimethyl {4-[2-(5-chloro-2,4-dimethoxyphenyl)imidazo[1,2-a]pyridin-7-yl]piperazin-1-yl}phosphonate], which IC50 (A549; A549, 72 h) is on record?
Answer: 3.9 µM

Question: What about the IC50 (SUV39H2) of the same molecule?
Answer: 0.00177 µM

Question: And the IC50 (PC14; PC-14, 72 h)?
Answer: 1.8 µM

Question: What about the IC50 (CCD-18Co; CCD-18Co, 72 h) of the same molecule?
Answer: 6 µM

Question: What about the IC50 (HCT-116; HCT-116, 72 h) of the same molecule?
Answer: 5.1 µM

Question: What about the IC50 (HFL1; HFL1, 72 h) of the same molecule?
Answer: 4 µM

Question: Which IC50 (A549; [1]) does the source give for COCCCN1CCN(c2ccn3cc(-c4cc(Cl)c(OC)cc4OC)nc3c2)CC1 [Example 96, 2-(5-chloro-2,4-dimethoxyphenyl)-7-(4-(3-methoxypropyl)piperazin-1-yl)imidazo[1,2-a]pyridine] here?
Answer: 6.9 µM

Question: And the IC50 (SUV39H2)?
Answer: 0.00833 µM

Question: And the IC50 (PC14; [2])?
Answer: 6.4 µM

Question: What about the IC50 (CCD-18Co; [3]) of the same molecule?
Answer: 6.8 µM

Question: What about the IC50 (HCT-116; [4]) of the same molecule?
Answer: 9 µM

Question: What about the IC50 (HFL1; [5]) of the same molecule?
Answer: 8.4 µM

Question: For COc1cc(OC)c(-c2cn3ccc(C4=CCN(CCO)CC4)cc3n2)cc1Cl [Example 134, 2-(4-(2-(5-chloro-2,4-dimethoxyphenyl)imidazo[1,2-a]pyridin-7-yl)-5,6-dihydropyridin-1(2H)-yl)ethanol], which IC50 (A549; [1]) is on record?
Answer: 5 µM

Question: What about the IC50 (SUV39H2) of the same molecule?
Answer: 0.0576 µM

Question: And the IC50 (PC14; [2])?
Answer: 5.3 µM

Question: And the IC50 (CCD-18Co; [3])?
Answer: 5.4 µM

Question: And the IC50 (HCT-116; [4])?
Answer: 6.8 µM

Question: And the IC50 (HFL1; [5])?
Answer: 3.8 µM
